Measured values reported in the CheMixHub viscosity set.

Experiment: xn = mol fraction of the nth substance listed

Oc1ccccc1Cl + CNc1ccccc1
viscosity [mPa·s], 101 kPa
Settings | x1 = 0.1013 | x1 = 0.2024 | x1 = 0.3005 | x1 = 0.4032 | x1 = 0.5007 | x1 = 0.6027 | x1 = 0.7 | x1 = 0.7936 | x1 = 0.9042
298 K | 2.395 | 2.887 | 3.546 | 4.142 | 4.746 | 4.883 | 4.922 | 4.587 | 3.898
303 K | 2.112 | 2.493 | 2.984 | 3.445 | 3.801 | 3.963 | 3.966 | 3.715 | 3.352
308 K | 1.84 | 2.126 | 2.526 | 2.863 | 3.129 | 3.277 | 3.305 | 3.117 | 2.77
313 K | 1.622 | 1.826 | 2.115 | 2.42 | 2.678 | 2.75 | 2.793 | 2.704 | 2.506
318 K | 1.443 | 1.598 | 1.883 | 2.075 | 2.302 | 2.34 | 2.42 | 2.342 | 2.198

CCC(CC)CO + CO
298.15 K, 101.33 kPa
Settings | viscosity [mPa·s]
x2 = 0.1241 | 4.806
x2 = 0.2054 | 4.143
x2 = 0.3133 | 3.38
x2 = 0.4534 | 2.454
x2 = 0.5051 | 2.214
x2 = 0.6004 | 1.744
x2 = 0.7073 | 1.33
x2 = 0.8019 | 1.041
x2 = 0.9015 | 0.7598

CCCCOC(C)=O + CO
303.15 K, 101.33 kPa
Settings | viscosity [mPa·s]
x1 = 0.0963 | 0.528
x1 = 0.1331 | 0.533
x1 = 0.1759 | 0.539
x1 = 0.2825 | 0.552
x1 = 0.3931 | 0.566
x1 = 0.4804 | 0.577
x1 = 0.5458 | 0.585
x1 = 0.6116 | 0.592
x1 = 0.6478 | 0.596
x1 = 0.7391 | 0.606
x1 = 0.8007 | 0.612
x1 = 0.8409 | 0.616
x1 = 0.8858 | 0.621
x1 = 0.924 | 0.624

CCCN + CO
298.15 K, 100 kPa
Settings | viscosity [mPa·s]
x2 = 0.0987 | 0.4013
x2 = 0.1995 | 0.4374
x2 = 0.2868 | 0.4756
x2 = 0.397 | 0.5323
x2 = 0.4985 | 0.5872
x2 = 0.5475 | 0.6104
x2 = 0.6249 | 0.6414
x2 = 0.6977 | 0.658
x2 = 0.8 | 0.652
x2 = 0.8982 | 0.6144
x2 = 0.9499 | 0.5827

CCC[n+]1ccccc1.F[B-](F)(F)F + CO
101 kPa
Settings | viscosity [mPa·s]
303.15 K, x1 = 0.8956 | 59.95
323.15 K, x1 = 0.3918 | 4.475

O=C(O)c1cc(O)c(O)c(O)c1 + CO
viscosity [mPa·s], 101 kPa
Settings | 293.15 K | 298.15 K | 303.15 K | 308.15 K | 313.15 K
x1 = 0.0019 | 0.634 | 0.595 | 0.551 | 0.517 | 0.491
x1 = 0.0038 | 0.664 | 0.62 | 0.576 | 0.542 | 0.505
x1 = 0.0058 | 0.699 | 0.66 | 0.604 | 0.562 | 0.528
x1 = 0.0078 | 0.734 | 0.684 | 0.635 | 0.591 | 0.55

Oc1ccccc1Cl + CO
Settings | viscosity [mPa·s]
303.15 K, 101 kPa, x1 = 0.2447 | 1.911

CC(C)c1ccccc1 + COC(=O)c1ccccc1
viscosity [mPa·s], 101 kPa
Settings | x2 = 0.1127 | x2 = 0.2209 | x2 = 0.3251 | x2 = 0.429 | x2 = 0.5302 | x2 = 0.6213 | x2 = 0.7199 | x2 = 0.8144 | x2 = 0.9082
303.15 K | 0.729 | 0.795 | 0.865 | 0.94 | 1.029 | 1.128 | 1.244 | 1.364 | 1.502
313.15 K | 0.649 | 0.694 | 0.75 | 0.819 | 0.883 | 0.961 | 1.044 | 1.132 | 1.235

CCCCOC(C)=O + COCCO
viscosity [mPa·s], 101 kPa
Settings | x2 = 0.0967 | x2 = 0.1995 | x2 = 0.2988 | x2 = 0.3986 | x2 = 0.4983 | x2 = 0.6028 | x2 = 0.697 | x2 = 0.7987 | x2 = 0.9012
298.15 K | 0.703 | 0.736 | 0.787 | 0.841 | 0.922 | 1.01 | 1.13 | 1.285 | 1.48
303.15 K | 0.656 | 0.686 | 0.731 | 0.78 | 0.849 | 0.928 | 1.034 | 1.17 | 1.34
308.15 K | 0.615 | 0.641 | 0.68 | 0.723 | 0.785 | 0.855 | 0.948 | 1.066 | 1.217

CCCN + COCCO
viscosity [mPa·s]
Settings | 293.15 K | 298.15 K
101 kPa, x2 = 0.0294 | – | 0.387
101 kPa, x2 = 0.0662 | – | 0.415
101 kPa, x2 = 0.0845 | – | 0.431
101 kPa, x2 = 0.1053 | – | 0.448
101 kPa, x2 = 0.1391 | – | 0.482
101 kPa, x2 = 0.1936 | – | 0.54
101 kPa, x2 = 0.2423 | – | 0.6
101 kPa, x2 = 0.2765 | – | 0.644
101 kPa, x2 = 0.321 | – | 0.708
101 kPa, x2 = 0.3635 | – | 0.775
101 kPa, x2 = 0.3989 | – | 0.835
101 kPa, x2 = 0.4418 | – | 0.909
101 kPa, x2 = 0.4845 | – | 0.974
101 kPa, x2 = 0.5165 | – | 1.031
101 kPa, x2 = 0.5599 | – | 1.106
101 kPa, x2 = 0.5942 | – | 1.166
101 kPa, x2 = 0.6575 | – | 1.265
101 kPa, x2 = 0.6877 | – | 1.309
101 kPa, x2 = 0.7452 | – | 1.384
101 kPa, x2 = 0.8042 | – | 1.442
101 kPa, x2 = 0.8424 | – | 1.47
101 kPa, x2 = 0.8852 | – | 1.495
101 kPa, x2 = 0.9064 | – | 1.505
101 kPa, x2 = 0.9584 | – | 1.522
101 kPa, x2 = 0.9794 | – | 1.527
101.3 kPa, x2 = 0.0502 | 0.396 | 0.38
101.3 kPa, x2 = 0.1009 | 0.435 | 0.415
101.3 kPa, x2 = 0.1501 | 0.479 | 0.453
101.3 kPa, x2 = 0.2002 | 0.533 | 0.501
101.3 kPa, x2 = 0.2504 | 0.599 | 0.559
101.3 kPa, x2 = 0.3 | 0.674 | 0.627
101.3 kPa, x2 = 0.3498 | 0.759 | 0.703
101.3 kPa, x2 = 0.3997 | 0.852 | 0.785
101.3 kPa, x2 = 0.4499 | 0.95 | 0.87
101.3 kPa, x2 = 0.4998 | 1.05 | 0.955
101.3 kPa, x2 = 0.5504 | 1.149 | 1.039
101.3 kPa, x2 = 0.6 | 1.241 | 1.116
101.3 kPa, x2 = 0.6498 | 1.325 | 1.186
101.3 kPa, x2 = 0.6999 | 1.4 | 1.249
101.3 kPa, x2 = 0.7495 | 1.462 | 1.304
101.3 kPa, x2 = 0.8 | 1.515 | 1.354
101.3 kPa, x2 = 0.8511 | 1.561 | 1.4
101.3 kPa, x2 = 0.8999 | 1.601 | 1.443
101.3 kPa, x2 = 0.9499 | 1.647 | 1.49
